Measurements reported in patent US11759480B2, “Compositions and methods for CAR T cell therapy” (ENDOCYTE, INC., priority 2017, dated 2023).

Columns and labels:
THP-1-FRβ tumors = assay: EC17/CAR-T therapy in folate receptor-β positive acute myeloid leukemia model (Example 44); format: in vivo
Excerpt: THP-1-FRβ tumors were generated by intravenous implantation of cultured cells at 5×10^6 per animal in 9 NSG mice.
Starting 11 days post tumor implantation, ˜8.3 million of GFP+4M5.3 CAR-T cells were intravenously infused into each mouse. Mice were divided into 3 groups (n=3): (1) CAR-T cell alone, (2) CAR-T cells with weekly EC17 doses at 500 nmol/kg, and (3) CAR-T cells with weekly EC17 doses at 500 nmol/kg plus sodium fluorescein rescue when needed. The first EC17 dose was given two days after CAR-T cell administration. All EC17 doses were given towards the end of day (˜3-4 PM) to allow cytokine release syndrome (CRS) to develop overnight. […] No additional sodium fluorescein rescue was given for additional EC17 dosing in Group 3. Mice were weighed and monitored for sign of health and disease development. […] Upon euthanasia, all mice were subject to gross examination for the presence of tumor masses. All visible tumor masses were excised, counted and weighed. Blood, tumor metastases (mets) and normal adjacent tissues were collected for same-day flow cytometry analysis.
Plasma was removed from predetermined volumes of whole EDTA treated blood with a 10-minute 4° C. spin at 3000×g and the resulting cell pellets were incubated with a 10-fold volume of room temperature 1×RBC lysis solution (prepared from 10× stock; Biolegend, catalog #420301) for 5 minutes, centrifuged at 400×g for 5 min. The cell pellets were washed in a 10-fold volume of ice-cold phosphate-buffered saline (PBS, pH=7.4 and filtered with a 40 μm nylon filter then pelleted again. The leukocyte cell pellets were then resuspended in a flow cytometry staining solution (1% bovine serum albumin, […] human IgG (Equitech Bio, cat #SLH56-0001), 0.9% sodium azide in PBS, pH=7.4) supplemented with both anti-mouse FcγIII/II receptor (CD16/CD32) block (clone 2.4G2; BD Bioscience, catalog #553142 at 1:100 (v/v) dilution) and anti-human Fc Block (BD Biosciences, catalog #564220 at 1:50 (v/v) dilution). Surface marker staining was performed with the addition of the following fluorochrome conjugated monoclonal antibodies added to each sample for 20 minutes on ice in the dark: anti-human CD45-APCeF780 (clone HI30, eBioscience #47-0459-42 at 1:20 (v/v) dilution), anti-human CD3-BV650 (clone SK7, BD Bioscience, catalog #563999 at 1:20 (v/v) dilution), anti-human CD137-BV650 (clone 4B4-1, BD Bioscience #564092 at 1:20 (v/v) dilution), anti-human CD8α-PECy7 (clone RPA-T8, BD Bioscience, catalog #557746 at 1:20 (v/v) dilution), anti-human CD4-Percpe710 (clone SK3, eBioscience catalog #46-0047-42 at 1:20 (v/v) dilution), anti-human CD25-PE (clone M-A251, BD Bioscience, catalog #555432 at 1:10 (v/v) dilution), anti-human CD33-PE (clone WM53, BD Bioscience, catalog #555450 at 1:5 (v/v) dilution), anti-human CD123-AF647 (clone 9F5, BD Bioscience, catalog #563599 at 1:20 (v/v) dilution). Biotinylated anti-human folate receptor-β (clone m909) was kindly provided by the Low lab at Purdue University (Arthritis Res Ther. 2011; 13(2):R59) and detected using streptavidin-eFluor660 (eBioscience, catalog #50-4317 at 1:1000 (v/v) dilution). Folic acid binding was interpreted as a measure of functional folate receptor and was determined by incubation with an Alexa Fluor conjugated folic acid which was synthesized in house. After leukocyte staining, cells were washed with PBS and resuspended in cold PBS containing 3 μM propidium idodide. Flow cytometry data was collected on the Gallios flow cytometer (Beckman Coulter, Brea, Calif.), where a minimum of 15,000 CountBright™ bead events were collected in an attempt to collect enough leukocyte events for an accurate count of infused CAR T cells in each mouse blood sample. Determination of the concentration of CAR T cells in each blood sample was calculated according to Invitrogen's instructions. Briefly, CAR T cells were identified as human CD45+ GFP+ events and easily distinguished and counted using the Kaluza™ flow cytometry software version 1.5. […]

s.c. MDA-MB-231 tumors = assay: EC17 dose escalation cycles versus weekly dosing (Example 45); format: in vivo, mice
Procedure: The effect of EC17 dose de-escalation was investigated on the anti-tumor activity and the toxicity (body weight changes) of CAR-T therapy. 8.5 million frozen anti-FITC CAR-T cells were thawed and i.v. injected into mice bearing s.c. MDA-MB-231 tumors (100-200 mm3). 500 nmol/kg EC17 was administered 2 days after CAR-T injection and caused sCRS in mice. […] The first group was dosed with 500 nmol/kg EC17 weekly (SIW), whereas the second group was dosed with two EC17 escalation cycles. Each cycle lasted for 2 weeks (14 days). The dosing schedule in each cycle included 5 nmol/kg EC17 at day 1, 50 nmol/kg EC17 at day 3, 500 nmol/kg EC17 on day 5. After 9 days break, the second escalation cycle started. Tumor sizes and body weights were monitored 2-3 times per week.

MDA-MB-231 tumors = assay: Host mouse cytokines after NaFL rescue (Example 48); format: in vivo, NSG mice
Procedure: In the first part of the study (FIG. 75), mice were treated with EC17 and FITC-CAR-T cells. When mice started to show sCRS, one dose of 60 umol/kg NaFL was injected for rescue. Mouse blood samples were then collected at both 7 hours and 27 hours post NaFL rescue. Mouse cytokine levels in blood were analyzed using a mouse inflammation panel kit (Cat. No. 740446) from BioLegend by following the manufacturer's instructions. FIGS. 76 A-E show cytokine levels 7 hours post rescue. FIGS. 77A-C show cytokine levels 27 hours post rescue.
In the second part of the study, a series of concentrations of NaFL were tested for their rescue efficiency (FIG. 78). As shown in FIGS. 79-81, mice cytokine levels in blood were also dependent on the concentrations of sodium fluorescein used for rescue, and the median effective dose is about 0.6 μmol/kg with cytokines tested (e.g. MCP-1, IL-6, and IL-10) and the mice started to respond as early as 3 hours post rescue.

| Compound | recovery from CRS (THP-1-FRβ tumors; 6 μmol/kg, Group 3) | CAR T cell functionality after rescue (THP-1-FRβ tumors; mouse #10, rescue after first EC17 dose) | rescue from sCRS (s.c. MDA-MB-231 tumors; 6 umol/kg) | mouse cytokine levels in blood (MDA-MB-231 tumors; 60 μmol/kg, 7 hours and 27 hours post rescue) | earliest response post rescue (MDA-MB-231 tumors; mouse, in vivo) [h] | median effective dose (mouse MCP-1, IL-6, IL-10) (MDA-MB-231 tumors; mouse, in vivo) | GFP+ leukemic cells in blood (THP-1-FRβ tumors; 500 nmol/kg SIW for 4 weeks, day 34 post CAR-T infusion) | CRS grade (THP-1-FRβ tumors; morning after first EC17 dose 500 nmol/kg, ~8.3 million CAR-T) [grade] | persistence of anti-leukemia activity post CAR T cell infusion (THP-1-FRβ tumors; mouse, in vivo) [days] | EC17-treated mice with minimum tumor load at collection (THP-1-FRβ tumors; weekly 500 nmol/kg, +/- one-time sodium fluorescein rescue) | CAR T cell phenotype (THP-1-FRβ tumors; weekly injections of EC17) | body weight loss of escalation group (s.c. MDA-MB-231 tumors; cycles of 5, 50, 500 nmol/kg at day 1, 3, 5) | mouse cytokine levels in blood (MCP-1, IL-6, IL-10, IFN-β, TNF-α) (MDA-MB-231 tumors; EC17 dosed versus CAR-T without EC17) |
| --- | --- | --- | --- | --- | --- | --- | --- | --- | --- | --- | --- | --- | --- |
| O=C([O-])c1ccccc1-c1c2ccc(=O)cc-2oc2cc([O-])ccc12.[Na+].[Na+] [sodium fluorescein] | completely recovered | CAR T cell functionality was preserved | successfully rescued | much lower than those in un-rescued mice | 3 | about 0.6 μmol/kg |  |  |  |  |  |  |  |
| Nc1nc2ncc(CNc3ccc(C(=O)NC(CCC(=O)NCCNC(=S)Nc4ccc(-c5c6ccc(=O)cc-6oc6cc(O)ccc56)c(C(=O)O)c4)C(=O)O)cc3)nc2c(=O)[nH]1 (stereo not shown) [EC17, FITC-Folate] |  |  |  |  |  |  | nearly undetectable in the blood | ~3 | 47 | five out of the 6 | central memory/effector memory phenotype | much less than that of the EC17 SIW group | increased mouse cytokine levels |
